# Results taken from patent US9718790B2, “Triazine derivative and pharmaceutical composition having an analgesic activity comprising the same” (SHIONOGI & CO., LTD., priority 2010, dated 2017).
# Biological target: human P2X3 receptor (Homo sapiens (Human), UniProt P56373)
# Experiment: Evaluation of human P2X3 receptor inhibitory activity (Fluo-3 calcium fluorescence, FDSS 3000, ATP stimulation);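 note: stimulus was 50 nM ATP with fluorescence followed for 3 min, and the response per well was peak post-ATP fluorescence divided by the reading at measurement start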
# Type: cell-based
# [1] = C6BU-1 cells stably expressing human P2X3 receptor
# [2] = human P2X3 receptor, Test Example 1
# [3] = C6BU-1 cells stably expressing human P2X3 receptor, Fluo-3 fluorescence, FDSS 3000
# Chain of human P2X3 receptor (P56373 whole entry): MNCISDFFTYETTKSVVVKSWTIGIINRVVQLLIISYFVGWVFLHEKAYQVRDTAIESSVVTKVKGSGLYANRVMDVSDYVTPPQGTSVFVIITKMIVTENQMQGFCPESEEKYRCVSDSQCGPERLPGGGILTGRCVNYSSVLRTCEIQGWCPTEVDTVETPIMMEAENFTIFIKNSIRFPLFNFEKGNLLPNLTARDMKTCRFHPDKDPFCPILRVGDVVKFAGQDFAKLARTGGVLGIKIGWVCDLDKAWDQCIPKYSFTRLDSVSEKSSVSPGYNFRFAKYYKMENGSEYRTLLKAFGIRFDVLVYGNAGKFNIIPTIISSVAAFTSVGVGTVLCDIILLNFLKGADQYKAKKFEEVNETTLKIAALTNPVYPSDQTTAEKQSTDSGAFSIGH
Structure (SMILES),IC50 [1] [µM],IC50 [2] [µM],other results
O=c1[nH]/c(=N\c2ccc(OC3CCC3)cc2)n(Cc2ccc(Cl)cc2)c(=O)n1CC(CO)CO [Compound I-1974],0.007,,
C[C@@H](Cn1c(=O)[nH]/c(=N\c2ccc(N3CCCCCC3)cc2)n(Cc2ccc(Cl)cc2)c1=O)C(=O)O [Compound I-1235],0.214,,
NC(=O)Cn1c(=O)[nH]/c(=N\c2ccc(Oc3cccc(F)n3)cc2)n(Cc2ccc(Cl)cc2)c1=O [Compound I-2584],,0.008,
COC(=O)[C@@H](C)Cn1c(=O)nc(Cc2ccc(OC)c(F)c2)n(Cc2ccc(Cl)cc2)c1=O [Compound I-1869],,,IC50 [3]: 0.328 µM
CCc1nc2ccc(/N=c3\[nH]c(=O)n(CC(N)=O)c(=O)n3Cc3ccc(Cl)cc3)cc2s1 [Compound I-1805],,,IC50 [3]: 0.005 µM
Cc1nc2ccc(/N=c3\[nH]c(=O)n(CCC(=O)O)c(=O)n3Cc3ccc(Cl)cc3)cc2s1 [Compound I-1520],,0.032,
CC(CO)(CO)Cn1c(=O)[nH]/c(=N\c2ccc(Oc3nccs3)cc2)n(Cc2ccc(F)cc2)c1=O [Compound I-2508],,0.013,
COC(=O)[C@@H](C)Cn1c(=O)[nH]/c(=N\c2ccc(OC3CCOCC3)cc2)n(Cc2ccc(C)cc2)c1=O [Compound I-1073],,,IC50 [3]: 0.092 µM
COC(=O)CCn1c(=O)[nH]/c(=N\c2ccc(Oc3ncns3)cc2)n(Cc2ccc(Cl)cc2)c1=O [Compound I-2652],,0.003,
COC(=O)[C@H](C)[C@H](C)n1c(=O)[nH]/c(=N\c2ccc(OC(C)C)cc2)n(Cc2ccc(C)cc2)c1=O [Compound I-1081],,,IC50 [3]: 0.03 µM
COC(=O)c1cccc(Oc2ccc(/N=c3\[nH]c(=O)n(C)c(=O)n3Cc3ccc(Cl)cc3)cc2)n1 [Compound I-2271],,0.036,
N#Cc1ccc(Oc2ccc(/N=c3\[nH]c(=O)n(CCO)c(=O)n3Cc3ccc(Cl)cc3)cc2)cc1 [Compound I-2545],,0.007,
Cc1ccc(Cn2c(=O)n(CCC(=O)NS(C)(=O)=O)c(=O)[nH]/c2=N\c2ccc(OC(C)C)c(Cl)c2)cc1 [Compound I-1874],,,IC50 [3]: 0.013 µM
CCn1c(=O)[nH]/c(=N\c2ccc(Oc3ccc(NC(=O)NC4CC4)nc3)cc2)n(Cc2ccc(Cl)cc2)c1=O [Compound I-2243],,0.006,
COC(=O)[C@@H](C)Cn1c(=O)[nH]/c(=N\c2ccc(C)c(Cl)c2)n(Cc2ccc(Cl)cc2)c1=O [Compound I-0691],0.048,,
CC(C)Oc1ccc(/N=c2\[nH]c(=O)n(CCC(=O)O)c(=O)n2CC2C[C@H]3CC[C@@H]2C3)cc1F (stereo partly drawn) [Compound I-1862],,,IC50 [3]: 0.552 µM
Cc1ccc(Cn2c(=O)n(CCCO)c(=O)[nH]/c2=N\c2ccc(Oc3cccc(C#N)n3)cc2)cc1 [Compound I-2640],,0.002,
Cc1ccc(Cn2c(=O)n(C[C@H](C)C(=O)O)c(=O)[nH]/c2=N\c2ccc(C3CCCCC3)cc2)cc1 [Compound I-1108],,,IC50 [3]: 0.05 µM
C[C@@H](Cn1c(=O)[nH]/c(=N\c2ccc(O[C@H](C)C(F)(F)F)cc2)n(Cc2ccc(Cl)cc2)c1=O)C(=O)O [Compound I-0932],,,IC50 [3]: 0.021 µM
Cc1ccc(Cn2c(=O)n(CCC(=O)O)c(=O)[nH]/c2=N\c2ccc(CC(C)C)c(C)c2)cc1 [Compound I-1224],0.054,,
CCn1c(=O)[nH]/c(=N\c2ccc(Oc3ccc(C(N)=O)cc3)nc2)n(Cc2ccc(Cl)cc2)c1=O [Compound I-2620],,0.11,

Structure (SMILES),IC50 [1] [µM],IC50 [2] [µM],other results
CCn1c(=O)[nH]/c(=N\c2ccc(Oc3cccc(C(N)=O)n3)cc2)n(Cc2ccc(F)cc2)c1=O [Compound I-2495],,0.021,
"CO[C@@H](Cn1c(=O)[nH]/c(=N\c2ccc(OC(C)C)c(C)c2)n(Cc2ccc(Cl)cc2)c1=O)C(=O)O [Compound I-0807, (S)-1-(4-chlorobenzyl)-6-(3-mehyl-4-isopropoxyphenylimino)-3-(2-hydroxycarbonyl-2-methoxyethyl)-1,3,5-triazinane-2,4-dion]",0.013,,
COC(=O)[C@H](C)[C@H](C)n1c(=O)[nH]/c(=N\c2cccc(C(F)(F)F)c2)n(Cc2ccc(C)cc2)c1=O [Compound I-1309],0.021,,
Cc1ccc(Cn2c(=O)n(C[C@H](C)C(=O)O)c(=O)[nH]/c2=N\c2ccc3nc(C)ccc3c2)cc1 [Compound I-1278],0.033,,
CCn1c(=O)[nH]/c(=N\c2ccc(Oc3nc(C)c(C(=O)O)s3)cc2)n(C[C@H]2CC[C@H](C)CC2)c1=O [Compound I-2346],,0.004,
CCn1c(=O)[nH]/c(=N\c2ccc(Oc3ccc(S(N)(=O)=O)cc3)cc2)n(Cc2ccc(Cl)cc2)c1=O [Compound I-1993],0.006,,
Cc1ccc(Cn2c(=O)n(C)c(=O)[nH]/c2=N\c2ccc(Oc3cccc(/C=C/C(=O)O)c3)cc2)cc1 [Compound I-2363],,0.009,
CCn1c(=O)[nH]/c(=N\c2ccc(Oc3ncc(C(=O)O)cn3)cc2)n(Cc2ccc(Cl)cc2)c1=O [Compound I-2323],,0.016,
CC[C@@H](C)Oc1ccc(/N=c2\[nH]c(=O)n(CCC(=O)O)c(=O)n2Cc2ccc(C)cc2)cc1Cl [Compound I-1030],,,IC50 [3]: 0.014 µM
CCOC(=O)CCn1c(=O)[nH]/c(=N\c2ccc(OCC)c(Cl)c2)n(Cc2ccc(C)cc2)c1=O [Compound I-0867],,0.006,
CCc1oc2ccc(/N=c3\[nH]c(=O)n(CC4(C(=O)O)CC4)c(=O)n3Cc3ccc(C)cc3)cc2c1C [Compound I-1555],,,IC50 [3]: 0.016 µM
COC(=O)[C@@H](C)Cn1c(=O)[nH]/c(=N\c2ccc(OC(C)C)c(C)c2)n(Cc2ccc(C)cc2)c1=O [Compound I-0670],0.008,,
Cc1ccc(Cn2c(=O)n(C)c(=O)[nH]/c2=N\c2ccc(Oc3cncc(C(=O)O)n3)cc2)cc1 [Compound I-2475],,0.012,
Cc1ccc(Cn2c(=O)n(C[C@H](C)C(=O)O)c(=O)[nH]/c2=N\c2ccc(OCC(F)F)cc2)cc1 [Compound I-0849],,0.078,
CCn1c(=O)[nH]/c(=N\[C@H]2CC[C@H](Oc3ccnc(C(=O)O)c3)CC2)n(Cc2ccc(Cl)cc2)c1=O [Compound I-2297],,0.065,
Cc1nnc(Oc2ccc(/N=c3\[nH]c(=O)n(C)c(=O)n3Cc3ccc(Cl)cc3)cc2)o1 [Compound I-2355],,0.071,
CCn1c2ccccc2c2cc(/N=c3\[nH]c(=O)n([C@@H](C)[C@@H](C)C(=O)O)c(=O)n3Cc3ccc(Cl)cc3)ccc21 [Compound I-1815],,,IC50 [3]: 0.367 µM
O=c1[nH]/c(=N\c2ccc(Oc3ncccn3)cc2)n(Cc2ccc(Cl)cc2)c(=O)n1CCCO [Compound I-2543],,0.01,
COC(=O)CCn1c(=O)[nH]/c(=N\c2cn(C)nc2C(=O)NC(C)C)n(Cc2ccc(C)cc2)c1=O [Compound I-1804],,,IC50 [3]: 0.162 µM
CC(C)Oc1ccc(/N=c2\[nH]c(OCC(=O)O)nc(=O)n2Cc2ccc(Cl)cc2)cc1F [Compound I-0581],0.145,,
CCn1c(=O)[nH]/c(=N\c2ccc(Oc3cncc(C(N)=O)c3)cc2)n(Cc2ccc(Cl)cc2)c1=O [Compound I-1996],0.004,,

Structure (SMILES),IC50 [1] [µM],IC50 [2] [µM],other results
Cc1ccc(Cn2c(=O)n(CCC(=O)O)c(=O)[nH]/c2=N\c2ccc(Oc3ncccn3)cc2)cc1 [Compound I-2558],,0.022,
CC(C)c1nc2ccc(/N=c3\[nH]c(=O)n([C@@H](C)[C@@H](C)C(=O)O)c(=O)n3Cc3ccc(Cl)cc3)cc2s1 [Compound I-1585],,,IC50 [3]: 0.014 µM
C[C@@H](CO)n1c(=O)[nH]/c(=N\c2ccc(Oc3ccon3)cc2)n(Cc2ccc(Cl)cc2)c1=O [Compound I-2489],,0.05,
Cc1ccc(Cn2c(=O)n([C@@H](C)[C@@H](C)C(=O)O)c(=O)[nH]/c2=N\c2ccc3nc(C)ccc3c2)cc1 [Compound I-1352],0.026,,
O=C(O)c1cc(Oc2ccc(/N=c3\[nH]c(=O)n(C4CCC4)c(=O)n3Cc3ccc(Cl)cc3)cc2)ccn1 [Compound I-2484],,0.008,
CCn1c(=O)[nH]/c(=N\c2ccc(Oc3cc(CO)on3)cc2)n(Cc2ccc(Cl)cc2)c1=O [Compound I-1968],0.015,,
CCn1c(=O)[nH]/c(=N\c2ccc(Oc3ccc(C(=O)OC)cc3)cc2)n(Cc2ccc(C)cc2)c1=O [Compound I-2029],0.004,,
CCn1c(=O)[nH]/c(=N\c2ccc(Oc3ccc(C(=O)O)c(F)c3)cc2)n(Cc2ccc(Cl)cc2)c1=O [Compound I-2226],,0.012,
O=C(O)CCn1c(=O)[nH]/c(=N\c2ccc(OC3CCC3)cc2)n(Cc2ccc(Cl)cc2)c1=O [Compound I-1286],0.034,,
CC(C)Oc1ccc(/N=c2\[nH]c(=O)n([C@H]3C[C@@H]3C(=O)O)c(=O)n2Cc2ccc(Cl)cc2)cc1F [Compound I-0675],0.037,,
Cc1cc(/N=c2\[nH]c(=O)n(C[C@H](C)C(=O)O)c(=O)n2Cc2ccc(Cl)cc2)cnc1OC1CCC1 [Compound I-1483],,0.087,
Cc1cc(/N=c2\[nH]c(=O)n(CC3CN(C(=O)OC(C)(C)C)C3)c(=O)n2Cc2ccc(Cl)cc2)ccc1OC(C)C [Compound I-1640],,,IC50 [3]: 0.013 µM
O=C(O)c1cc(Oc2ccc(/N=c3\[nH]c(=O)n(CC(F)F)c(=O)n3Cc3ccc(Cl)cc3)cc2)ccn1 [Compound I-2248],,0.007,
C[C@@H](Oc1ccc(/N=c2\[nH]c(=O)n(CC(=O)NCCO)c(=O)n2Cc2ccc(Cl)cc2)cc1)C(F)(F)F [Compound I-1999],0.028,,
C[C@@H](Oc1ccc(/N=c2\[nH]c(=O)n(CCC(=O)NCC(F)(F)F)c(=O)n2Cc2ccc(Cl)cc2)cc1)C(F)(F)F [Compound I-1958],0.016,,
COC(=O)[C@@H](C)[C@@H](C)n1c(=O)[nH]/c(=N\c2ccc(OCC3CC3)cc2)n(Cc2ccc(C)cc2)c1=O [Compound I-1314],0.059,,
Cc1ccc(Cn2c(=O)n(C[C@H](C)C(=O)O)c(=O)[nH]/c2=N\c2cccc(C3=CCCC3)c2)cc1 [Compound I-1115],,,IC50 [3]: 0.516 µM
CCCc1ccc(/N=c2\[nH]c(=O)n(C[C@H](C)C(=O)O)c(=O)n2Cc2ccc(Cl)cc2)cc1C [Compound I-1213],0.104,,
CCCOc1ccc(/N=c2\[nH]c(=O)n(CC3(C(=O)O)CC3)c(=O)n2Cc2ccc(Cl)cc2)cc1 [Compound I-0925],,,IC50 [3]: 0.059 µM
CCN(c1ccc(/N=c2\[nH]c(=O)n(C[C@H](C)C(=O)OC)c(=O)n2Cc2ccc(Cl)cc2)cc1)C(C)C [Compound I-0952],,,IC50 [3]: 0.741 µM
Cc1ccc(Cn2c(=O)n(CCC(=O)O)c(=O)[nH]/c2=N\c2ccc(OC(C)C)c(Br)c2)cc1 [Compound I-1178],,,IC50 [3]: 0.017 µM
